For one experiment, the system named is Aspergillus flavus. The experiment is described as follows: Microbial Growth Inhibition Test, broth microdilution optical method. It counts as cell-based. The note with it: 12 μM. As to the method: The IC90 of psoriasin for several microorganisms was determined by Microbial Growth Inhibition Tests. The tests were performed using the Broth Microdilution Optical Method based on standardized protocols M27 (yeasts) and M38 (filamentous fungi) of the Clinical and Laboratory Standards Institute. […] MOPS, LB (Luria-Bertani), and TSB ([…]) medium types were used, depending on the species being tested. The absorbance was calibrated to each species, and was measured between 450 nm to 650 nm.
In addition, ethyl lauroyl arginate (LAE), a commercially available food preservative, was tested in similar growth conditions as a reference.

Experiment [1] concerns initial microbial load of plant-based meat substitute. The experiment is described as follows: Microbial load of plant-based meat substitute during storage. It is filed as cell-based. As to the method:
The ability of psoriasin to extend the shelf life of a plant-based meat substitute was examined under standard storage conditions. Three groups, each stored as an open package at […], were assessed over the course of 16 days. The groups included i) an untreated control, ii) a nisin-treated sample, and iii) a psoriasin-treated sample at 0.65%. A single source of the plant-based meat substitute was used and each group was reproduced in triplicate. The microbial load of the plant-based meat substitute samples was based on the initial microbial load without the addition of antibiotics and without the addition of mold, yeast or bacteria. Samples from each group were taken on days 1, 3, 5, 10, 11 and 16 and total CFU count was determined by plating on LB and PDA agar petri dishes.

A further experiment has as its system C. albicans. The experiment is described as follows: C. albicans growth in RPMI-MOPS with S100a12. It is filed as cell-based, Candida albicans. The note with it: 30° C, approximately 19 hours. As to the method:
C. albicans cells in RPMI-MOPS were incubated in a 96-well plate at 30° C. with S100a12 at concentrations of 0.32, 2.5, 5 and 20 μM (FIG. 11). Optical density was measured every 10 minutes by absorbance at 600 nm over the course of approximately 19 hours.

For another experiment, the system named is E. coli BL21 cells. The experiment is described as follows: E. coli growth in LB with S100a8 / S100a9. The settings on record: 37° C; for inhibition of E. coli growth: 0.18 μM to 50 μM. It counts as cell-based. The procedure: E. coli cells in LB media were incubated in a 96-well plate at 37° C. with S100a8 (FIG. 10A) or S100a9 (FIG. 10B) at concentrations varying from 0.18 μM to 50 μM. Optical density was measured every 10 minutes by absorbance at 600 nm over the course of approximately 19 hours. […] In addition, the same experiment was performed using varying equimolar concentrations of S100a8 and S100a9 that were pre-incubated for two hours at 4° C. under constant shaking.

Some results are limits rather than exact numbers.

For the molecule `CCCCCCCCCCCC(=O)N[C@@H](CCCN=C(N)N)C(=O)OCC` [LAE, ethyl lauroyl arginate, reference compound], the “inhibition of A. flavus growth” value with Aspergillus flavus is given as “approximately 40%”.
Take nisin [reference compound]: the “Yeast & Mold Count” value in experiment [1] (Day 1) is listed as 2 × 10^2; in experiment [1] (Day 3) it was 2 × 10^2; in experiment [1] (Day 5) it was 1.4 × 10^3; in experiment [1] (Day 10) it was 1.47 × 10^4; in experiment [1] (Day 11) it was 1.46 × 10^4; in experiment [1] (Day 16), 3.2 × 10^4. For the same molecule, the “Total CFU count” value in experiment [1] (Day 1, open package, psoriasin 0.65%) is 1.2 × 10^4 CFU; in experiment [1] (Day 3), 1.2 × 10^4 CFU; in experiment [1] (Day 5) it was 5 × 10^4 CFU; in experiment [1] (Day 10) it was 1.8 × 10^8 CFU; in experiment [1] (Day 11) it was 2.35 × 10^8 CFU; in experiment [1] (Day 16), 1.28 × 10^10 CFU.

B1: S100a12: S100 protein; human S100a12 sequence SEQ ID NO: 6 (protein, listed as Homo sapiens)
chain: MTKLEEHLEGIVNIFHQYSVRKGHFDTLSKGELKQLLTKELANTIKNIKDKAVIDEIFQGLDANQDEQVDFQEFISLVAIALKAAHYHTHKE
B1: the “concentration with significant inhibition of C. albicans growth” value with C. albicans is at least 0.32 µM.

B2: S100a9: Recombinant S100 protein; human S100a9 sequence SEQ ID NO: 4 (protein, listed as Homo sapiens)
chain: MTCKMSQLERNIETIINTFHQYSVKLGHPDTLNQGEFKELVRKDLQNFLKKENKNEKVIEHIMEDLDTNADKQLSFEEFIMLMARLTWASHEKMHEGDEGPGHHHKPGLGEGTP
In the case of B2, the “inhibition of E. coli growth” value with E. coli BL21 cells is “Inhibit Growth of E. coli BL21 Cells”.

B3: S100a8: Recombinant S100 protein; human S100a8 sequence SEQ ID NO: 3 (protein, listed as Homo sapiens)
chain: MLTELEKALNSIIDVYHKYSLIKGNFHAVYRDDLKKLLETECPQYIRKKGADVWFKELDINTDGAVNFQEFLILVIKMGVAAHKKSHEESHKE
Turning to B3, the “inhibition of E. coli growth” value in the experiment on E. coli BL21 cells is “Inhibit Growth of E. coli BL21 Cells”. Further, the “concentration giving full inhibition of E. coli growth” value in the experiment with E. coli BL21 cells (approximately 19 hours, OD 600 nm) was at most 1.5 µM.

(Values after patent US20260231968A1, “AN ECO-FRIENDLY, SUSTAINABLE FOOD PRESERVATIVE” (priority 2023, published 2026).)
